According to ChEMBL document CHEMBL6115017, “Discovery of DFV890, a Potent Sulfonimidamide-Containing NLRP3 Inflammasome Inhibitor” (J Med Chem, 2025):
Converted amounts (≈) assume the structure as drawn. The source made the active and inactive calls. The rule behind the calls is not given here.

Experiments:
[1] = Metabolic stability in rat hepatocytes assessed as intrinsic clearance measured per 10^6 cells; assay type: ADME, cell-based, Hepatocyte; conditions: read-out: CLH
[2] = Oral bioavailability in Sprague-Dawley rat at 5 mg/kg administered through oral gavage by LC-MS analysis; assay type: ADME, organism-based; conditions: in vivo
[3] = Half life in C57 BL6 mouse at 10 mg/kg, po and 2 mg/kg, iv by LC-MS analysis; assay type: ADME, organism-based; conditions: in vivo
[4] = Oral bioavailability in C57 BL6 mouse at 10 mg/kg administrated through oral gavage by LC-MS analysis; assay type: ADME, organism-based; conditions: in vivo
[5] = Oral bioavailability in Beagle dog at 2 mg/kg administrated through oral gavage by LC-MS analysis; assay type: ADME, organism-based, Canis lupus familiaris; conditions: in vivo
[6] = Oral bioavailability in Cynomolgus monkey at 5 mg/kg administrated through oral gavage and 2 mg/kg, iv by LC-MS analysis; assay type: ADME, organism-based, Macaca fascicularis; conditions: in vivo
[7] = Fraction unbound in C57 BL6 mouse plasma; assay type: ADME, cell-free
[8] = AUC (infinity) in Beagle dog at 2 mg/kg, po by LC-MS analysis; assay type: ADME, organism-based, Canis lupus familiaris; conditions: in vivo
[9] = Cytotoxicity against human HEK293 cells measured after 72 hrs; assay type: toxicity, cell-based
[10] = Cytotoxicity against mouse CT26 cells measured after 72 hrs; assay type: toxicity, cell-based
[11] = Thermodynamic solubility in PBS at pH 1; assay type: physicochemical; conditions: read-out: Therm_solubility
[12] = Metabolic stability in mouse hepatocytes assessed as intrinsic clearance measured per 10^6 cells; assay type: ADME, cell-based, Hepatocyte; conditions: read-out: CLH
[13] = Metabolic stability in dog hepatocytes assessed as intrinsic clearance measured per 10^6 cells; assay type: ADME, cell-based, Canis lupus familiaris, Hepatocyte; conditions: read-out: CLH
[14] = Metabolic stability in Cynomolgus monkey hepatocytes assessed as intrinsic clearance measured per 10^6 cells; assay type: ADME, cell-based, Macaca fascicularis, Hepatocyte; conditions: read-out: CLH
Cytochrome P450 2B6 [15] = molecular target: T1, Cytochrome P450 2B6 (Homo sapiens, UniProt P20813); assay: Inhibition of CYP2B6 (unknown origin); assay type: ADME
T1 sequence (P20813 whole entry): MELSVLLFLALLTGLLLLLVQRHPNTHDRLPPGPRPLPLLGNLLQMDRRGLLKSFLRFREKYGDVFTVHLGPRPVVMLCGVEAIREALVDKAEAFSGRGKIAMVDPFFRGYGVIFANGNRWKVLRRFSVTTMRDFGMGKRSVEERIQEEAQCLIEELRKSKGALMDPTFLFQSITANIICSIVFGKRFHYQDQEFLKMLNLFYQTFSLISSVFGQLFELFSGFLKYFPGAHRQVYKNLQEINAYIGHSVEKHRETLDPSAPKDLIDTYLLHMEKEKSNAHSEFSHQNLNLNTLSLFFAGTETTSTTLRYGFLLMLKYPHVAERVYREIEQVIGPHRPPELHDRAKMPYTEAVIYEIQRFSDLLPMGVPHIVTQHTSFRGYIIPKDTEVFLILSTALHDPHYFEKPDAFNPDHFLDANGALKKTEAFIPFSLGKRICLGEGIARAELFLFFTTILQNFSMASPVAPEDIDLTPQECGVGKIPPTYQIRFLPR

Cytochrome P450 2C9 = Cytochrome P450 2C9 (Homo sapiens, UniProt P11712); assay: Inhibition of CYP2C9 (unknown origin); assay type: ADME
Chain of Cytochrome P450 2C9 (P11712 whole entry): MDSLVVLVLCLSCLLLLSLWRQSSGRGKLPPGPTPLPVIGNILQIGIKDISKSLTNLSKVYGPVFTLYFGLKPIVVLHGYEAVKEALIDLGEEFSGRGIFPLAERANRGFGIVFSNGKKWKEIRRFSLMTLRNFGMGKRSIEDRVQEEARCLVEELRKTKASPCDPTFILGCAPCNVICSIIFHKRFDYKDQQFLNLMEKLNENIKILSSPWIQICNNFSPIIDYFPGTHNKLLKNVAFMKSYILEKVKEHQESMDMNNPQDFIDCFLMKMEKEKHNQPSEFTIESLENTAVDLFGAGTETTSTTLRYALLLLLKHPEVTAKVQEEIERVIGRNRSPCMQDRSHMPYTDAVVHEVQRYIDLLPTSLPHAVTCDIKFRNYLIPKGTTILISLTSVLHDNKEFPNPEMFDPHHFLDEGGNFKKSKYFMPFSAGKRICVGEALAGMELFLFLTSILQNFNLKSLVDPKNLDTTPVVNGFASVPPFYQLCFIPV

Cytochrome P450 2D6 = Cytochrome P450 2D6 (Homo sapiens, UniProt P10635); assay: Inhibition of CYP2D6 (unknown origin); assay type: ADME
Chain of Cytochrome P450 2D6 (P10635 whole entry): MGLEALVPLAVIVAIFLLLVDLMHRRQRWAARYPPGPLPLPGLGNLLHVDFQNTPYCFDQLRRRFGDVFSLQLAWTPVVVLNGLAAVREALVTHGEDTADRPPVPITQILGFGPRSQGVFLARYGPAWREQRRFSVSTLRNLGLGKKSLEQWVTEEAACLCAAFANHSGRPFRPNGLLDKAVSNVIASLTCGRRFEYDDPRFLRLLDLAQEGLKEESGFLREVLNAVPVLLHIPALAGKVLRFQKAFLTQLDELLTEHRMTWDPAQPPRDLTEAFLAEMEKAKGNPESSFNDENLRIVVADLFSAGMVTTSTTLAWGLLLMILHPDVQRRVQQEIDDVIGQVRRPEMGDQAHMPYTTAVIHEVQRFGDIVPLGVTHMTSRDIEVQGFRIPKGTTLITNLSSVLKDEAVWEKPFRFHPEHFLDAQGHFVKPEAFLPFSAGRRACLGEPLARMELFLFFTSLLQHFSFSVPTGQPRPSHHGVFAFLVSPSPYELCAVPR

Cytochrome P450 3A4 = Cytochrome P450 3A4 (Homo sapiens, UniProt P08684); assay: Inhibition of CYP3A4 (unknown origin); assay type: ADME
Chain of Cytochrome P450 3A4 (P08684 whole entry): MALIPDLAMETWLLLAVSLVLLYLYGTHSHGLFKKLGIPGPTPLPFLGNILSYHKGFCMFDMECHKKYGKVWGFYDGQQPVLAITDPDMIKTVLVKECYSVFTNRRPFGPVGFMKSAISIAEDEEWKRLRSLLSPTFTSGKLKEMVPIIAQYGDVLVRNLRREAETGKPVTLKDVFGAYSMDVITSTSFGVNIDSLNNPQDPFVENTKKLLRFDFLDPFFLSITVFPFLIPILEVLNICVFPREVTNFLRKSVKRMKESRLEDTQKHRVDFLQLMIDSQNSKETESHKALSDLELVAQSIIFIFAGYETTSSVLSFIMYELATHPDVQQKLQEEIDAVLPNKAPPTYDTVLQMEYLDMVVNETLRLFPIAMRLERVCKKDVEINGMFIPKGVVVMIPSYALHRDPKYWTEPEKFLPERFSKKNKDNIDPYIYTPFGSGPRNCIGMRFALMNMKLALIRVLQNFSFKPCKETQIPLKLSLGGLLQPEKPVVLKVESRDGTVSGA

Cytochrome P450 3A5 [16] = molecular target: T2, Cytochrome P450 3A5 (Homo sapiens, UniProt P20815); assay: Inhibition of CYP3A5 (unknown origin); assay type: ADME
T2 sequence (P20815 whole entry): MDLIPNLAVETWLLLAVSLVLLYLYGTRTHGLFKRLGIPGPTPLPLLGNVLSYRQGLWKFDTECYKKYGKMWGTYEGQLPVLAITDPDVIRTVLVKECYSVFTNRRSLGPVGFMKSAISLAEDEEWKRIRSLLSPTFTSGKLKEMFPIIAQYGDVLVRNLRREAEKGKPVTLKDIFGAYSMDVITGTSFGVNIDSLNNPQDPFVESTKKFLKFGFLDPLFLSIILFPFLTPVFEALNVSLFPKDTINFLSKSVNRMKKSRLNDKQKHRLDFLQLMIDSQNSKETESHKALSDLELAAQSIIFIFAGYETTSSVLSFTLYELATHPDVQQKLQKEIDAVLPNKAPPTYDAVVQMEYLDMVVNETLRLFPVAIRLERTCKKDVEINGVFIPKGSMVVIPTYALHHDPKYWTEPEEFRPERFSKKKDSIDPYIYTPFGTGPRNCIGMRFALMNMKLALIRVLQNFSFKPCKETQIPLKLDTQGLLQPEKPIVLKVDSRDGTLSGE

Cytochrome P450 1A2 = molecular target: T3, Cytochrome P450 1A2 (Homo sapiens, UniProt P05177); assay: Inhibition of CYP1A2 (unknown origin) by time dependent inhibition assay; assay type: ADME
T3 sequence (P05177 whole entry): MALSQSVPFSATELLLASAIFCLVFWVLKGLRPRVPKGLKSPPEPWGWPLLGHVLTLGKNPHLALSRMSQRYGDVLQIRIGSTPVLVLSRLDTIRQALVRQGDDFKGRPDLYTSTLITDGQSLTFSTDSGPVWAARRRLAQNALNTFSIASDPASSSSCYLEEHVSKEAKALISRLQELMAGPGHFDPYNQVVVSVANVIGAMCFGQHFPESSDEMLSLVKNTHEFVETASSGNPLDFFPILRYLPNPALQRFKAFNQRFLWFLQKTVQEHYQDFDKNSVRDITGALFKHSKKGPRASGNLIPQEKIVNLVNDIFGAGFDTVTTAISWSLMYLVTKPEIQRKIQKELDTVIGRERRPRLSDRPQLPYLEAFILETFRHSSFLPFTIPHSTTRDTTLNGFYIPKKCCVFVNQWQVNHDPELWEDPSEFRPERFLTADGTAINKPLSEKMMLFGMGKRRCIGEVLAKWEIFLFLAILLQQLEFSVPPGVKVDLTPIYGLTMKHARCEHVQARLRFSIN

Cytochrome P450 2B6 [17] = molecular target: T1, Cytochrome P450 2B6; assay: Inhibition of CYP2B6 (unknown origin) by time dependent inhibition assay; assay type: ADME
Cytochrome P450 3A5 [18] = molecular target: T2, Cytochrome P450 3A5; assay: Inhibition of CYP3A5 (unknown origin) by time dependent inhibition assay; assay type: ADME
hERG = hERG (Homo sapiens, UniProt Q12809); assay: Inhibition of hERG at 30 uM relative to control; assay type: toxicity
Chain of hERG (Q12809 whole entry): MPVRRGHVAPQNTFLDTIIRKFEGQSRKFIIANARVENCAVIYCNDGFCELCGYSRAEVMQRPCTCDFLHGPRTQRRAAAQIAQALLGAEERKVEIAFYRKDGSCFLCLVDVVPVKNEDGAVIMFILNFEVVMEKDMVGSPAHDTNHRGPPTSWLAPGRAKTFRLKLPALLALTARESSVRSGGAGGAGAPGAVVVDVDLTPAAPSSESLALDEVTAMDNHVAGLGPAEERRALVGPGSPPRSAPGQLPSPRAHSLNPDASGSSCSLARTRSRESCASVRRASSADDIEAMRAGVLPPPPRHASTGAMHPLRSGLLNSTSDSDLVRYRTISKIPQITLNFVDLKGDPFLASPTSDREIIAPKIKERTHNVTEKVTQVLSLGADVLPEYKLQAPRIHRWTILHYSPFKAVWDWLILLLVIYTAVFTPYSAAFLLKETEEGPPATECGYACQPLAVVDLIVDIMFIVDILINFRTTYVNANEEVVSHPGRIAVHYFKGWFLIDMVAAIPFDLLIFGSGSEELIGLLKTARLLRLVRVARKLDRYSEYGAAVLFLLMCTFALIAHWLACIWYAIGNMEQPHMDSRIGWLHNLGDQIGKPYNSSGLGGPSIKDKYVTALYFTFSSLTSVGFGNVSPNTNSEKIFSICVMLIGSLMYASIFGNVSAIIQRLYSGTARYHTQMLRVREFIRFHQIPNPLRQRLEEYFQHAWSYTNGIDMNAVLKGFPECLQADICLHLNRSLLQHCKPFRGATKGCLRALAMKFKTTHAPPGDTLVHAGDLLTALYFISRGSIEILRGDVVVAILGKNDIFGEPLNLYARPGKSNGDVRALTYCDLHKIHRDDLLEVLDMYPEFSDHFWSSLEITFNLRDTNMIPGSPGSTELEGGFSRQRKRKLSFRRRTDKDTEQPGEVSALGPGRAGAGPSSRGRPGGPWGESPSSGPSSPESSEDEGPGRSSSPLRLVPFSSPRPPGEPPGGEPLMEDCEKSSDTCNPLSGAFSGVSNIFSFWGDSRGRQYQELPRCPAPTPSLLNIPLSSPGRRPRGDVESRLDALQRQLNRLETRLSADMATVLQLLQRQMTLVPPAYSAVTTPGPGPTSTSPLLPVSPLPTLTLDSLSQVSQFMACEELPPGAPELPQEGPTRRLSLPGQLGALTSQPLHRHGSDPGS

Bile salt export pump = Bile salt export pump (Homo sapiens, UniProt O95342); assay: Inhibition of BSEP (unknown origin) assessed as reduction in uptake rate of taurocholic acid at 5 uM relative to control; assay type: toxicity
Chain of Bile salt export pump (O95342 whole entry): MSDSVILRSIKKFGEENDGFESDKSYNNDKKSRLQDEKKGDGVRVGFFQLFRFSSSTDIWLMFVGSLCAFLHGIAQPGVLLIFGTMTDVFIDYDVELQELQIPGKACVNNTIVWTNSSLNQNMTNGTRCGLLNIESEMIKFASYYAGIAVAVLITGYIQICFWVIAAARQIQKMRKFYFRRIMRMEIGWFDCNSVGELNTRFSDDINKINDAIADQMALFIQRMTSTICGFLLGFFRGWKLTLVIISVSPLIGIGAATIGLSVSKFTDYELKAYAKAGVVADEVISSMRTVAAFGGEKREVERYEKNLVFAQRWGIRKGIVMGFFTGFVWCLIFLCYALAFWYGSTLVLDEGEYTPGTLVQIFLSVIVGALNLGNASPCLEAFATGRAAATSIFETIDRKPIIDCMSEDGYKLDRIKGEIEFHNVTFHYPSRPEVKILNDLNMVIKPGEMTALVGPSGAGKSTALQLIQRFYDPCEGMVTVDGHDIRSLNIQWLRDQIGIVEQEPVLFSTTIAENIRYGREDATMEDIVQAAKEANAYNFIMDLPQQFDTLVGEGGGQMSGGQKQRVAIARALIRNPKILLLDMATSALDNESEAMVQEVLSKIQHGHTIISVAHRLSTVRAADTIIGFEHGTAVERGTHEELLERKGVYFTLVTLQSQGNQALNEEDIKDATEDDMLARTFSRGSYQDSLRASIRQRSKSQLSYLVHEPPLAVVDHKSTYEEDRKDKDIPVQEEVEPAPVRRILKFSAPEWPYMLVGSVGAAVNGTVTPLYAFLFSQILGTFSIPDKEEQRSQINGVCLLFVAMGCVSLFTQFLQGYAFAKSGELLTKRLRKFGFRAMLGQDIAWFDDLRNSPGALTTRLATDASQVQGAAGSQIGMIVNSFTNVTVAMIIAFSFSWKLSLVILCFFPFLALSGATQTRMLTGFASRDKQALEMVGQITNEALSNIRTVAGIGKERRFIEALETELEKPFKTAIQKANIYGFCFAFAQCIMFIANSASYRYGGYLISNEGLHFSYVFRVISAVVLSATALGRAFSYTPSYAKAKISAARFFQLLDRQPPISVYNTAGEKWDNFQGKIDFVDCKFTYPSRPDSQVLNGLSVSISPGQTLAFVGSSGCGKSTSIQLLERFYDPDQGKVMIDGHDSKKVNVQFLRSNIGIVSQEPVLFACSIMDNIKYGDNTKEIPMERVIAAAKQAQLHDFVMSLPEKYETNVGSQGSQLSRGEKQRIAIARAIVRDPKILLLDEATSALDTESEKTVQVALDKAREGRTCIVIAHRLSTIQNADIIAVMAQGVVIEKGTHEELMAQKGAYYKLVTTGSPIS

[19] = Mutagenicity in Salmonella typhimurium by AMES test; assay type: toxicity; conditions: salmonella enterica subsp. enterica serovar typhimurium
PBMC = assay: Antagonist activity at NLRP3 inflammasome activation in Cynomolgus monkey PBMC assessed as inhibition of LPS-stimulated IL-1beta release by measuring free concentration pretreated for 1 hr followed by induced with LPS measured after 18 hrs by HTRF analysis; assay type: cell-based; conditions: Macaca fascicularis, filed as antagonist, time 19.0 hrs
THP-1 = assay: Inhibition of pyroptosis in PMA-primed human THP-1 cells assessed as release of lactate dehydrogenase
Mus musculus [20] = assay: In vivo inhibition of NLRP3 dependent cytokine production in po dosed LPS-challenged C57BL/6 mouse model assessed as inhibition of LPS-induced TNFalpha production in blood pretreated for 1 hr followed by induced with LPS measured after 5 hrs by cytokine bead assay; assay type: functional, organism-based; conditions: time 6.0 hrs
Mus musculus [21] = assay: In vivo anti-inflammatory activity against MSU crystal-induced gouty arthritis Balb/c mouse model assessed as reduction of volume of pouch exudate at 0.1 to 50 mg/kg, po single dose; assay type: functional, organism-based; conditions: dose 0.1-50 mg/kg

## CC(C)(O)c1ncc([S@](N)(=O)=NC(=O)Nc2c3c(cc4c2CCC4)CCC3)s1
[1]
  hepatocyte CLint: 7.5 µL/min/1e6 cells
[2]
  bioavailability: 82%
[3]
  half-life: 3.9 h
[4]
  bioavailability: 61%
[5]
  bioavailability: 97%
[6]
  bioavailability: 83%
[7]
  fraction unbound: 0.015
[8]
  AUC(0-inf): 163 µg·h/mL
[9]
  EC50 at 72 h: > 100 µM
[10]
  EC50 at 72 h: > 100 µM
[11]
  solubility thermodynamic: 7.4 µg/mL (≈ 17.6 µM)
[12]
  hepatocyte CLint: < 1.9 µL/min/1e6 cells
[13]
  hepatocyte CLint: < 1.9 µL/min/1e6 cells
[14]
  hepatocyte CLint: 4.2 µL/min/1e6 cells
Cytochrome P450 2B6 [15]
  IC50: > 60 µM
Cytochrome P450 2C9
  IC50: > 60 µM
Cytochrome P450 2D6
  IC50: > 60 µM
Cytochrome P450 3A4
  IC50: > 60 µM
Cytochrome P450 3A5 [16]
  IC50: > 60 µM
Cytochrome P450 1A2
  TDI: Not_active
Cytochrome P450 2B6 [17]
  TDI: Not_active
Cytochrome P450 3A5 [18]
  TDI: Not_active
hERG
  inhibition at 30 µM: 8%
Bile salt export pump
  Activity: Not_active
[19]
  Activity: Non-toxic
PBMC
  fIC50: 1 nM
THP-1
  IC50: 0.027 µM
Mus musculus [20]
  inhibition: Dose-dependent-effect
Mus musculus [21]
  Activity: Active
